EC50 data for 56 molecules are collected here from PubChem BioAssay AID1259426 (Fisher Drug Discovery Resource Center, 2018).

Values joined by “and” are separate entries in the source; they are usually repeats but may differ in a detail not shown here. Equal entries are not always repeated. Active and inactive are the calls of the source.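 The calls were made as follows: active = EC50 under a set limit in control cells lacking the mosquito receptor, marking a fluorescence artifact; inactive = the rest.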 Where only a bound is given, the exact number is not on record here.

This assay addresses HEK293 Galpha15/GCaMP6s without NPYLR7, calcium fluorescence. Description: nonspecific activation in parental Galpha15/GCaMP6s cells – cell-based, HEK293 lacking NPYLR7, counter-screen for mosquito NPYLR7 agonist project, dose response (AID 1259426).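 Also: potency for a rise in fluorescence over baseline.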
For the molecule `CCN1CCc2c(sc(NC(=O)C3=COCCO3)c2-c2nc3ccccc3s2)C1`, the half-maximal effective concentration (EC50) is 0.945 µM.

Take `CCN1/C(=C/C2=CC(=O)CC(C)(C)C2)Sc2ccccc21`: the EC50 is 3.9 µM.

In the case of `CC1(C)OC2OC(C(O)c3cc(O)c4c(c3O)C(=O)c3ccccc3C4=O)C(C)(O)C2O1` (stereo unspecified), the EC50 was 1.86 µM.

Take `CCCCNC(=O)CCCCCNC(N)=O`: the EC50 is > 20 µM (inactive).

On to `C[n+]1c2cc(N)ccc2cc2ccc(N)cc21`, for which the EC50 was less than 0.039 µM.

On to `COc1ccccc1CCNC(=O)c1ccc(Cn2c(C)nc3ccccc32)o1`, for which the EC50 is > 20 µM (inactive).

In the case of `O=C(N=Nc1c(O)[nH]c2ccc(Br)cc12)c1ccccc1Cl`, the EC50 is > 20 µM (inactive).

Turning to `O=C(O)c1csc(CSc2nnc(Cc3ccccc3)n2-c2cccc(C(F)(F)F)c2)n1`, the EC50 was > 20 µM (inactive).

Consider `N#Cc1cccc(C(=O)N2CCN(C(c3ccccc3)c3ccc(Br)cc3)CC2)c1` (stereo unspecified), for which the EC50 was > 20 µM (inactive).

`O=C(O)CN1C(=O)/C(=C\c2cc([N+](=O)[O-])cc(Br)c2O)SC1=S`: the EC50 was 1.07 µM.

`Nc1ccc2c3c(cccc13)C(=O)NC2=O`: the EC50 is 2.07 µM.

For the molecule `CC[n+]1c(/C=C/C=C2/N(C)c3ccccc3C2(C)C)sc2ccccc21`, the EC50 was > 20 µM (inactive).

As to `Cc1ccc(C(=O)C=Cc2ccc(N(C)C)cc2)o1`, the EC50 was less than 0.039 µM.

For `Nc1ccc(Oc2cc(N)cc(Oc3ccccc3)c2)cc1`, the EC50 was 18.3 µM.

For `CCN1CC(=Cc2cc(C)n(C3CC3)c2C)C(=O)C(=Cc2cc(C)n(C3CC3)c2C)C1`, the EC50 was > 20 µM (inactive).

Take `CC(C)C(=O)Nc1sc2c(c1-c1nc3ccccc3s1)CCN(C)C2`: the EC50 was > 20 µM (inactive).

In the case of `COc1ccc(-n2ccnc2-c2ccc(C#CC(C)(C)O)cc2)cn1`, the EC50 is > 20 µM (inactive).

As to `COc1ccc(C(=O)N(Cc2ccccc2)C2CCC(NC(=O)C3CCN(C(=O)c4ccccc4Cl)CC3)CC2)cc1` (stereo unspecified), the EC50 was > 20 µM (inactive).

Turning to `COc1ccc(CC2c3cc(OC)c(OC)cc3CC[N+]2(C)CCC(=O)OCCCCCOC(=O)CC[N+]2(C)CCc3cc(OC)c(OC)cc3C2Cc2ccc(OC)c(OC)c2)cc1OC` (stereo unspecified), the EC50 was > 20 µM (inactive).

For the molecule `CCCc1[nH]n(-c2ccc(Cl)c(Cl)c2)c(=O)c1/C=C1\NC(=O)N(Cc2ccc(C)cc2)C1=O`, the EC50 is 18.9 µM.

With `CC(C(=O)O)N1C(=O)/C(=C/c2ccc(N(C)C)cc2)SC1=S` (stereo unspecified), the EC50 is 7.74 µM.

Turning to `OC=c1ccc2cccc3nc(C(F)(F)F)nc1c23`, the EC50 was 11.2 µM.

With `CS(=O)(=O)Nc1nc2n(n1)C(c1ccccc1)CC(c1ccc(Cl)cc1)=N2` (stereo unspecified), the EC50 is > 20 µM (inactive).

On to `CCCC[n+]1c(C)cc(C=C2Sc3ccccc3N2CC)cc1C`, for which the EC50 is 18.7 µM.

Turning to `Fc1cc(F)cc(C2C=C(c3ccco3)Nc3ncnn32)c1` (stereo unspecified), the EC50 was 8.31 µM.

For the molecule `O=C(c1nccc2ccccc12)N1CCN(CC2CCCC2)CC1`, the EC50 was > 20 µM (inactive).

Take `CCCN1CCc2c(sc3c2c(NC(CC)CO)nc2nnnn23)C1` (stereo unspecified): the EC50 is > 20 µM (inactive).

For `O=C(O)CCn1c(O)c(C=C2C=Nc3ccccc32)sc1=S`, the EC50 was 12 µM.

As to `Nc1c2c(nc3sc4c(c13)CCCC4)CCCCC2`, the EC50 is > 20 µM (inactive).

With `COCCCN(Cc1ccc(C(C)(C)C)cc1)Cc1cccn1Cc1cccc(C)c1`, the EC50 is > 20 µM (inactive).

For `O=[N+]([O-])c1c[n+]([O-])n(-c2cccc(Cl)c2)n1`, the EC50 was > 20 µM (inactive).

For `CCOC(=O)C1CCN(C(=O)CC(c2cccc(C(F)(F)F)c2)c2c[nH]c3c(CC)cccc23)CC1` (stereo unspecified), the EC50 is > 20 µM (inactive).

As for `N#CC1C(=N)Oc2cc(O)ccc2C1c1ccccc1I` (stereo unspecified), the EC50 is 7.42 µM.

Consider `COc1ccc(CCN2COc3ccc4c(c3C2)O/C(=C\c2cccnc2)C4=O)cc1`, for which the EC50 was > 20 µM (inactive).

For `CCC(C)n1cc(/C=C2/C(=O)NC(=O)N(c3ccc4c(c3)OCO4)C2=O)c2ccccc21` (stereo unspecified), the EC50 is > 20 µM (inactive).

Turning to `CCCCN(C)C1=CC2=CC(=C(C#N)C#N)CCC2CC1` (stereo unspecified), the EC50 was less than 0.039 µM.

For `CCN(CC)CCCC(C)Nc1c2ccc(Cl)cc2nc2ccc(OC)cc12` (stereo unspecified), the EC50 is 4.89 µM and 1.41 µM.

With `COc1cc(C=C(C#N)S(=O)(=O)c2ccc(Cl)cc2)cc(Cl)c1O`, the EC50 was > 20 µM (inactive).

Consider `CC(=O)NCCc1ccc(O)c(O)c1`, for which the EC50 was 0.0722 µM.

For `O=C1/C(=C/c2cccc(F)c2)Oc2c1ccc(O)c2CN1CCN(CCO)CC1`, the EC50 is 13.9 µM.

As to `Cc1cc2nc3c(=O)[nH]c(=O)nc-3n(CC(O)C(O)C(O)CO)c2cc1C` (stereo unspecified), the EC50 was less than 0.039 µM.

In the case of `Cc1nc(=O)c(-c2ccccc2)c(C)n1-c1ccccc1O`, the EC50 was > 20 µM (inactive).

As for `CCOC(=O)N1CCN(c2ccc(/C=C(\C#N)c3nc4ccccc4[nH]3)o2)CC1`, the EC50 was > 20 µM (inactive).

With `OCCN(CCO)c1nc(N2CCCCC2)c2nc(N(CCO)CCO)nc(N3CCCCC3)c2n1`, the EC50 was 3.58 µM and 1.94 µM.

Regarding `Cc1nc2ncccc2cc1C(=O)N1CCC2(CCNC(=O)CC2)CC1`, the EC50 is > 20 µM (inactive).

As to `CCCc1ccccc1N1C(=O)CSC1c1ccc(NC(=O)CCl)cc1` (stereo unspecified), the EC50 is > 20 µM (inactive).

In the case of `CCNC(=O)[C@H]1O[C@@H](n2cnc3c(N)ncnc32)C(O)[C@H]1O` (stereo partly specified), the EC50 is less than 0.039 µM.

Consider `COc1ccc(C(=O)C=Cc2cc(Br)c(O)c(OC)c2)cc1F`, for which the EC50 was less than 0.039 µM.

In the case of `CC(=O)[C@]1(O)Cc2c(O)c3c(c(O)c2[C@@H](O[C@H]2C[C@H](N)[C@H](O)[C@H](C)O2)C1)C(=O)c1ccccc1C3=O`, the EC50 was 4.29 µM.

Turning to `Nc1nc(Cl)nc2c1ncn2[C@@H]1O[C@H](CO)[C@@H](O)[C@H]1O`, the EC50 was 1.15 µM.

As to `N#CC(C#N)=C1C=C2C=C(N3CCCCCC3)CCC2CC1` (stereo unspecified), the EC50 is less than 0.039 µM.

Turning to `CCN(CC)c1ccc(/C=C2\SC(=S)N(CCS(=O)(=O)O)C2=O)cc1`, the EC50 was 0.039 µM.

With `CC(C(=O)O)N1C(=O)/C(=C\c2ccc(O)cc2)SC1=S` (stereo unspecified), the EC50 was 12.1 µM.

Turning to `FC(F)(F)c1ccc(-c2nc3ccc(Cl)cn3c2NCc2ccccc2)cc1`, the EC50 was > 20 µM (inactive).

For `N#CC(C#N)=Cc1ccc(O)c(O)c1`, the EC50 was > 20 µM (inactive).

Consider `CC(C)Nc1ccc(NS(=O)(=O)NCc2ccccc2)cn1`, for which the EC50 was > 20 µM (inactive).
